In publication PMC6829886, “Inhibition of Non-Small Cell Lung Cancer Cells by Oxy210, an Oxysterol-Derivative that Antagonizes TGFβ and Hedgehog Signaling” (Cells, 2019):

Tests used:
A549 cells = assay: TGFβ-induced drug resistance (carboplatin) assay, cell counting; format: cell-based, human; settings: TGFβ1 ± Oxy210 (5 μM) 3 days, then 20 μM CP 4 days
Experimental: A549 and H2030 cells cultured in RPMI 1640 containing 5% FBS in 12 well-plates at 20% confluence were treated with Oxy210 for 6 days and then trypsinized, spun down and resuspended in fresh medium. For the Carboplatin (CP) and Oxy210 co-treatment experiments, A549 cells cultured in RPMI 1640 containing 2% FBS in 12 well-plates at 20% confluence were treated with CP at different concentrations in the presence or absence of Oxy210 for 6 days. For the TGFβ-induced drug resistance assay, A549 cells cultured in RPMI 1640 containing 2% FBS in 12 well-plates at 10% confluence were pre-treated with TGFβ1 alone or together with Oxy210 for 3 days, and then treated with 20 μM CP for 4 days. An aliquot of cell suspension was applied to a hemocytometer and the cells were then counted under a light microscope.
Figure 10 Effect of Oxy210 on TGFβ-induced resistance to carboplatin. A549 cells were treated with the agents as indicated (in front of --) in RPMI 1640 containing 2% FBS for 3 days, and then treated with the agents as indicated (after --) for 4 days. The cells were then trypsinized and counted. Data from a representative experiment are reported as the mean of triplicate determinations ± SD (## p < 0.01 vs. Control--Control; ++ p < 0.01 vs. Control--CP; ** p < 0.01 vs. TGFβ--CP).

[1] = tested on: Gli1 transcriptional activity; assay: Gli responsive luciferase reporter in NIH3T3-E1 cells over expressing Gli1; format: cell-based, mouse; settings: 10 μM, 72 hrs
Experimental: NIH3T3-E1 cells cultured in 24 well-plates at 90% confluence were transiently transfected with 0.1 μg of Smad response-element reporter (SBE-Luciferase) plasmid (Qiagen), or with 0.1 μg of Gli response-element reporter (pGL3b-8xGli-Luciferase) plasmid, and 10 ng of pSV40-Renilla-Luciferase plasmid (Promega, Madison, WI, USA) with or without co-transfection with 10ng of Gli1 overexpression vector, pSRα-Gli1 using a Lipofectamine LTX Plus transfection reagent, as previously described. Sufu-/- cells cultured in 24 well-plates at 90% confluence were transiently transfected with 0.1μg of pGL3b-8xGli-Luciferase plasmid, and 10 ng of pSV40-Renilla-Luciferase plasmid. 6 hrs after transfection, cells were treated with test agents for 72 h. […] Then the firefly and Renilla luciferase activities were measured using a dual luciferase kit (Promega) and a GloMax-96 Microplate Luminometer (Promega) or a plate reader-SpectraMax iD3 (Molecular Devices, San Jose, CA, USA). […]
Figure 5 Oxy210 acts downstream of Smo. […] After 72 h, RNA was extracted and analyzed by Q-RT-PCR for the expression of Hh target genes Gli1 and Hip, normalized to Oaz1 expression. […] Luciferase activity was measured and normalized to the Renilla luciferase activity. […]

[2] = tested on: phosphorylation of Smad2 and Smad3 in A549 cells; assay: Western blot of TGFβ-induced Smad2/Smad3 phosphorylation; format: cell-based, human; settings: 10 μM pretreatment 3 h, TGFβ 4 ng/mL
Experimental: A549 cells were pretreated with DMSO, Oxy186 (10 μM) or Oxy210 (10 μM) for 3 h, then treated with TGFβ (4 ng/mL) for the indicated times. After treatment, the cells were harvested in Triton lysis buffer (1% Triton X-100, 25 mM Tris-HCl, pH 7.4, 300 mM NaCl with protease and phosphatase inhibitors), and the supernatant was collected as cell lysates after centrifugation (15,000× g, 25 min at 4 °C). A Bradford assay was used to measure the protein concentration. […] proteins of each sample were loaded into the wells of an 8% SDS-PAGE gel, and the proteins were transferred to a PVDF membrane after SDS-PAGE gel separation. […] Densitometry readings were performed with ImageJ software (Version 1.52a, NIH, Bethesda, MD, USA, see Supplementary Materials).
Figure 11 Inhibition of TGFβ-induced Smad2/3 phosphorylation and transcriptional activity. […] Luciferase activity was measured and normalized to the Renilla luciferase activity. […]

## C[C@]12CC[C@H]3[C@@H](CC=C4C[C@@H](O)CC[C@@]43C)[C@@H]1CC[C@@H]2[C@](C)(O)CCc1cccnc1 [Oxy210, (3S,8S,9S,10R,13S,14S,17S)-17-((R)-2-hydroxy-4-(pyridin-3-yl)butan-2-yl)-10,13-dimethyl-2,3,4,7,8,9,10,11,12,13,14,15,16,17-tetradecahydro-1H-cyclopenta[a]phenanthren-3-ol]
A549 cells
  sensitivity to CP after TGFβ1 pre-treatment (TGFβ-induced CP resistance): fully restored CP drug sensitivity
[1]
  transcriptional activity of Gli responsive luciferase reporter trans-activated by exogenous Gli1: significantly inhibited
[2]
  TGFβ-induced phosphorylation of Smad2 and Smad3: robustly inhibited
